Measured values as given in paper doi:10.1101/2025.11.20.689572v1 (biorxiv, 2025).
Like-named read-outs stand apart in the source and are kept apart here.

Assays:
M4 = molecular target: T1, M4 (Homo sapiens, UniProt P08173); experiment: TRUPATH BRET2 G protein dissociation, HEK293; format: cell-based; conditions: HBSS, […] HEPES pH […] °C; agonist mode
T1 construct: gene CHRM4; full-length receptor; HEK293 with TRUPATH sensors (function)
T1 sequence (P08173 1-479): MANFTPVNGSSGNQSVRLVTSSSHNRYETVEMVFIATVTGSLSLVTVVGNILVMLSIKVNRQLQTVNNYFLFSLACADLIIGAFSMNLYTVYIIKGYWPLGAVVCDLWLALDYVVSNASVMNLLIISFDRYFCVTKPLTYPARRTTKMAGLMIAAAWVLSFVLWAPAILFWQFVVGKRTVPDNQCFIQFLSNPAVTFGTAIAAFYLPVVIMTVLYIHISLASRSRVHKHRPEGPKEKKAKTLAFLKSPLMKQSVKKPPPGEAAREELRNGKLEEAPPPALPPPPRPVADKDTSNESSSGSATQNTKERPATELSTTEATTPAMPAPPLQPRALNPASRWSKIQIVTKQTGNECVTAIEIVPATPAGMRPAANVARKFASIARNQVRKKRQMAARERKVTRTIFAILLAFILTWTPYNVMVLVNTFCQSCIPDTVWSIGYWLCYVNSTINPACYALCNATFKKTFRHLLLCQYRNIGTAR

5-HT2B = molecular target: T2, 5-HT2B (Homo sapiens, UniProt P41595); experiment: competitive radioligand binding, HEK293 membranes
T2 construct: gene HTR2B; full-length receptor; HEK293 cell membranes
Description: competitive radioligand binding, HEK293 membranes on 5-HT2B

5-HT2A = molecular target: T3, 5-HT2A (Homo sapiens, UniProt P28223); experiment: competitive radioligand binding, HEK293 membranes
T3 construct: gene HTR2A; full-length receptor; HEK293 cell membranes
Description: competitive radioligand binding, HEK293 membranes on 5-HT2A

M1 = molecular target: T4, M1 (Homo sapiens, UniProt P11229); experiment: TRUPATH BRET2 G protein dissociation, HEK293; format: cell-based; conditions: HBSS, […] HEPES pH […] °C; agonist mode
T4 construct: gene CHRM1; full-length receptor; HEK293 with TRUPATH sensors (function)
T4 sequence (P11229 1-460): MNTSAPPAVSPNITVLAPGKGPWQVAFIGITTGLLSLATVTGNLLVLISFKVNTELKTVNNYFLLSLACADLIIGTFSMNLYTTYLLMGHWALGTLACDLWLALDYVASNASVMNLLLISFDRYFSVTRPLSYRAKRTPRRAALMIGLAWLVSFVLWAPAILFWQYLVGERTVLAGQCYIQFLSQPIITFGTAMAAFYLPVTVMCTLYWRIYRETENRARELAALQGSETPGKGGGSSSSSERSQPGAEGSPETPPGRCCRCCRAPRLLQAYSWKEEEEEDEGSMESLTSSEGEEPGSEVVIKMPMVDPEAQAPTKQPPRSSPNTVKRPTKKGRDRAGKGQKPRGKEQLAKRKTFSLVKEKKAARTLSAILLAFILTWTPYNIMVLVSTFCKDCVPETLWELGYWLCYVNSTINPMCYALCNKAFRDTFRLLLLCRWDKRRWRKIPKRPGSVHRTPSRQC

CHRM4 = molecular target: T5, CHRM4 (Homo sapiens, UniProt P08173); experiment: cell-based; design: species or system HEK293; BRET1 beta-arrestin2 recruitment, receptor-RLuc8 and mVenus-beta-arrestin2 with GRK2; conditions: Assay=barr2, agonist mode, % of control agonist
T5 sequence (P08173 1-479): T1 sequence (P08173 1-479)
Description: (§1) BRET1 assays followed prior methods.

CHRM3 = CHRM3 (Homo sapiens, UniProt P20309); experiment: cell-based; design: species or system HEK293; BRET1 beta-arrestin2 recruitment, receptor-RLuc8 and mVenus-beta-arrestin2 with GRK2; conditions: Assay=barr2, agonist mode, % of control agonist
Description: as §1

KOR = molecular target: T6, KOR (Homo sapiens, UniProt P41145); experiment: competitive radioligand binding, HEK293 membranes
T6 construct: gene OPRK1; full-length receptor; HEK293 cell membranes
Description: competitive radioligand binding, HEK293 membranes on KOR

M5 = molecular target: T7, M5 (Homo sapiens, UniProt P08912); experiment: TRUPATH BRET2 G protein dissociation, HEK293; format: cell-based; conditions: HBSS, […] HEPES pH […] °C; agonist mode
T7 construct: gene CHRM5; full-length receptor; HEK293 with TRUPATH sensors (function)
T7 sequence (P08912 1-532): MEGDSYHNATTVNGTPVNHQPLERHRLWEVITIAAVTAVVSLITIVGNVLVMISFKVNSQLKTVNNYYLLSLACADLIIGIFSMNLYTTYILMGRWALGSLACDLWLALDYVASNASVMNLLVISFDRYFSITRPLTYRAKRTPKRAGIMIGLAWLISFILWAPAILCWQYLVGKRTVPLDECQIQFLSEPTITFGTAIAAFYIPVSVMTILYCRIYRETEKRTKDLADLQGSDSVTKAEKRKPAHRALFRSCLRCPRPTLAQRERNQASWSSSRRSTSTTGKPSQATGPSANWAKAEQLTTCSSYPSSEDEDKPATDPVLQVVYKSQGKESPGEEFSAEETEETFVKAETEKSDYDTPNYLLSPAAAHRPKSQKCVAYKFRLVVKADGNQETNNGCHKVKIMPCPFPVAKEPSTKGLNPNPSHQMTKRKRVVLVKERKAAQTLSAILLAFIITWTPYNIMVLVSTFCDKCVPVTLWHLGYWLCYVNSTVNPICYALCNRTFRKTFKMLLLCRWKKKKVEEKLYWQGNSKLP

H2 = molecular target: T8, H2 (Homo sapiens, UniProt P25021); experiment: competitive radioligand binding, HEK293 membranes
T8 construct: gene HRH2; full-length receptor; HEK293 cell membranes
Description: competitive radioligand binding, HEK293 membranes on H2

[1] = HEK293, read-out: N-Desmethyl Xanomeline

Structure (SMILES)	EC50 (M4)	Ki (5-HT2B)	Ki (5-HT2A)	EC50 (M1)	Emax (CHRM4; [1])	Emax (CHRM3; [1])	Ki (KOR)	EC50 (M5)	Ki (H2)	Emax (CHRM4; HEK293, read-out: Xanomeline)	Emax (CHRM3; HEK293, read-out: Xanomeline)
CCCCCCOc1nsnc1C1=CCCNC1 [N-desmethylxanomeline]	differential activation of M1-M5 muscarinic receptor transducers	15.8 nM	537 nM	differential activation of M1-M5 muscarinic receptor transducers	20.5%	32.8%	1020 nM	differential activation of M1-M5 muscarinic receptor transducers	1020 nM		
CCCCCCOc1nsnc1C1=CCCN(C)C1 [Xanomeline]	xanomeline being more potent and efficacious than carbachol at M1 and M4 muscarinic receptors	39.8 nM	251 nM	xanomeline being more potent and efficacious than carbachol at M1 and M4 muscarinic receptors			1780 nM	differential activation of M1-M5 muscarinic receptor transducers	347 nM	29.1%	21.7%
